Molecules are shown by their SMILES. Active and inactive are the calls of the source. No cut-off for these calls is given here.

Type in all cases: nucleic-acid assay
For assay [1], the system named is DNA. Briefly: Binding affinity to dsBE45 oligonucleotide (unknown origin) assessed as drug-DNA adduct formation at 5 to 50 uM incubated for 4 hrs in presence of formaldehyde using [gamma-32P]ATP by phosphorimaging analysis.
For assay [2], the system named is DNA. Briefly: Stabilization of dsBE15 oligonucleotide (unknown origin) assessed as drug-DNA adduct formation at 5 to 50 uM incubated for 4 hrs in presence of formaldehyde using [gamma-32P]ATP by phosphorimaging analysis.
Assay [3] has as its system DNA. Briefly: Stabilization of dsBE17 oligonucleotide (unknown origin) assessed as drug-DNA adduct formation at 5 to 50 uM incubated for 4 hrs in presence of formaldehyde using [gamma-32P]ATP by phosphorimaging analysis.
In assay [4] the test system is DNA. Briefly: Stabilization of [32P]-labelled dsDNA (unknown origin) assessed as drug-DNA adduct formation by measuring residual dsDNA level at 6 uM measured after 10 days in presence of formaldehyde by phosphorimaging analysis relative to control.
Assay [5] concerns DNA. Briefly: Stabilization of [32P]-labelled dsDNA (unknown origin) assessed as drug-DNA adduct formation at 1 uM to 24 uM incubated for 12 hrs in presence of formaldehyde by phosphorimaging analysis.
Assay [6] deals with DNA. Briefly: Stabilization of dsBE12 oligonucleotide (unknown origin) assessed as drug-DNA adduct formation at 5 to 50 uM incubated for 4 hrs in presence of formaldehyde using [gamma-32P]ATP by phosphorimaging analysis relative to control.
Assay [7] relates to DNA. Briefly: Stabilization of [32P]-labelled dsDNA (unknown origin) assessed as drug-DNA adduct formation by measuring adduct half life incubated for 12 hrs in presence of formaldehyde by phosphorimaging analysis.
Assay [8] deals with DNA. In words: Stabilization of dsBE67 oligonucleotide (unknown origin) assessed as drug-DNA adduct formation at 5 to 50 uM incubated for 4 hrs in presence of formaldehyde using [gamma-32P]ATP by phosphorimaging analysis relative to control.
Assay [9] relates to DNA. Briefly: Stabilization of [32P]-labelled dsDNA (unknown origin) assessed as drug-DNA adduct formation at 5 uM in presence of formaldehyde incubated for 12 hrs by phosphorimaging analysis relative to control.
The subject of assay [10] is DNA. Briefly: Stabilization of [32P]-labelled dsDNA (unknown origin) assessed as drug-DNA adduct formation by measuring residual dsDNA level at 6 uM measured after 16 hrs in presence of formaldehyde by phosphorimaging analysis relative to control.
In assay [11] the test system is DNA. In words: Stabilization of [32P]-labelled dsDNA (unknown origin) assessed as drug-DNA adduct formation incubated for 12 hrs in presence of formaldehyde by phosphorimaging analysis.
Assay [12] relates to DNA. In words: Induction of transcriptional blockage of 512 bp DNA fragment (unknown origin) at 2.5 to 10 uM incubated for 4 hrs in presence of formaldehyde using [alpha-32P]UTP by phosphorimaging analysis.
The test system of assay [13] is DNA. Briefly: Stabilization of dsBE15 oligonucleotide (unknown origin) assessed as drug-DNA adduct formation at 50 uM incubated for 4 hrs in presence of formaldehyde using [gamma-32P]ATP by phosphorimaging analysis relative to control.
Assay [14] has as its system DNA. Briefly: Induction of transcriptional blockage of 512 bp DNA fragment (unknown origin) at 2.5 uM incubated for 4 hrs in presence of formaldehyde using [alpha-32P]UTP by phosphorimaging analysis.
The test system of assay [15] is DNA. In words: Induction of transcriptional blockage of 512 bp DNA fragment (unknown origin) assessed as loss of full length transcript comprising 379 nucleotide at 5 uM incubated for 4 hrs in presence of formaldehyde using [alpha-32P]UTP by phosphorimaging analysis.
Assay [16] concerns DNA. In words: Stabilization of [32P]-labelled dsDNA (unknown origin) assessed as drug-DNA adduct formation by measuring residual dsDNA level at 2.5 uM measured after 16 hrs in presence of formaldehyde by phosphorimaging analysis relative to control.
The subject of assay [17] is DNA. In words: Stabilization of [32P]-labelled dsDNA (unknown origin) assessed as drug-DNA adduct formation by measuring increase in retardation of dsDNA migration on gel at >3 uM incubated for 12 hrs in presence of formaldehyde by phosphorimaging analysis.
Assay [18] deals with DNA. In words: Induction of transcriptional blockage of 512 bp DNA fragment (unknown origin) assessed as loss of full length transcript comprising 379 nucleotide at 10 uM incubated for 4 hrs in presence of formaldehyde using [alpha-32P]UTP by phosphorimaging analysis relative to control.
The subject of assay [19] is DNA. Briefly: Stabilization of [32P]-labelled dsDNA (unknown origin) assessed as drug-DNA adduct formation by measuring adduct half life at 10 uM in presence of formaldehyde by phosphorimaging analysis.

For `NCCCCCNc1ccc(NCCCCCN)c2c1C(=O)c1c(O)ccc(O)c1C2=O`, the result in the assay with DNA [1] and with DNA [2] was inactive. For the same compound, the outcome with DNA [3] and in the assay on DNA [5] was Active. The Activity in the assay with DNA [4] is 17%; with DNA [6], 20%; in the assay with DNA [8] it was 30%; with DNA [9], 40%. The T1/2 with DNA [7] was 53 h.
Consider `NCCNCCNc1ccc(F)c2c1C(=O)c1c(O)ccc(O)c1C2=O`, for which the results for the Activity in the assay with DNA [10], with DNA [11] and in the assay with DNA [9] were 20%, “Dose-dependent effect” and 25%, respectively. The result in the assay on DNA [2], with DNA [3], in the assay on DNA [6], with DNA [8] and in the assay on DNA [12] was Active. For the same compound, in the assay with DNA [7], the T1/2 turned out to be 10 h.
As for `NCCNc1ccc(NCCN)c2c1C(=O)c1c(O)ccc(O)c1C2=O`, the outcome in the assay with DNA [1] and in the assay with DNA [2] was inactive. For the same compound, the result in the assay with DNA [3] and with DNA [5] was Active. Also, the Activity in the assay on DNA [6] was 30%; with DNA [8], under 55%; with DNA [9] it was 30%. In the assay with DNA [7], the T1/2 stood at 2.3 h.
As to `NCCNCCNc1ccc(NCCNCCN)c2c1C(=O)c1c(O)ccc(O)c1C2=O`, the Activity is over 75% with DNA [13]; “Dose-dependent effect” in the assay on DNA [11]; 20% in the assay on DNA [16]; under 80% in the assay with DNA [6]; 90 to 100% with DNA [9]; 100% in the assay with DNA [18]. Besides, the result in the assay with DNA [14], in the assay on DNA [15], in the assay on DNA [1], with DNA [3], with DNA [17] and in the assay on DNA [8] was Active. Moreover, in the assay with DNA [7], the T1/2 was 12.5 h.
In the case of `NCCCCCNc1ccc(NCCCCCN)c2c1C(=O)c1ccncc1C2=O`, in the assay on DNA [5], the outcome was inactive. Moreover, the Activity with DNA [9] is under 2%.
For the compound `O=C1c2c(O)ccc(O)c2C(=O)c2c(NCCNCCO)ccc(NCCNCCO)c21`, the result in the assay on DNA [6] was Active. Further, the T1/2 in the assay on DNA [7] stood at 0.42 h. Further, the Activity in the assay with DNA [9] came out at 5%.
For the compound `NCCCCCNc1ccc(F)c2c1C(=O)c1ccncc1C2=O`, the outcome in the assay with DNA [5] was inactive. Moreover, the Activity with DNA [9] is under 1%.
For `NCCCCCNc1ccc(F)c2c1C(=O)c1c(O)ccc(O)c1C2=O`, the T1/2 with DNA [19] is 27 h; in the assay on DNA [7], 24 h. For the same compound, the result with DNA [1], in the assay on DNA [2] and in the assay with DNA [6] was inactive. Further, the result with DNA [3] and with DNA [5] was Active. For the same compound, the Activity in the assay with DNA [8] was 10%; in the assay on DNA [9], 50%.

For the origin of these results see ChEMBL document CHEMBL4616593, “Formaldehyde-activated WEHI-150 induces DNA interstrand crosslinks with unique structural features” (Bioorg Med Chem, 2020).
